A short description of data set [1]: Metabolic stability in mouse brain homogenate assessed as degradation half life at 10 mM measured upto 480 mins by RP-HPLC analysis. It is filed as ADME, tissue-based.
Data set [2] deals with T1, Kappa-type opioid receptor (Homo sapiens, UniProt P41145). Briefly: Agonist activity at KOR (unknown origin) transfected in CHO cells co-expressing Galphaq15 assessed as increase in calcium mobilization by Fluo-4AM dye based assay. It is filed as functional, cell-based. (In general: A change in cytosolic calcium serves as a functional read-out for many receptors and channels.)
T1 sequence (P41145 whole entry): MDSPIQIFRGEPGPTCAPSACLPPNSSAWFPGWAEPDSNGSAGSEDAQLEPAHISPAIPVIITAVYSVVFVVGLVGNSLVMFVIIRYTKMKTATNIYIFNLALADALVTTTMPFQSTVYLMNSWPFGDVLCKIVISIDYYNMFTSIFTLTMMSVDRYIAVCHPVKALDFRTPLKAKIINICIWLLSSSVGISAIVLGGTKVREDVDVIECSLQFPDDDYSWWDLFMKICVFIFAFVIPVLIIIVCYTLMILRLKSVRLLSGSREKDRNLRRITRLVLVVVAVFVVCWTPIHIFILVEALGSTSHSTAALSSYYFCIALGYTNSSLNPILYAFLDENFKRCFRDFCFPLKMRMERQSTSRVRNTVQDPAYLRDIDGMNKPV

The target in data set [3] is T2, Delta-type opioid receptor (Homo sapiens, UniProt P41143). Nature of the data set: Agonist activity at DOR (unknown origin) transfected in CHO cells co-expressing Galphaq15 assessed as increase in calcium mobilization by Fluo-4AM dye based assay. It is filed as functional, cell-based.
T2 sequence (P41143 whole entry): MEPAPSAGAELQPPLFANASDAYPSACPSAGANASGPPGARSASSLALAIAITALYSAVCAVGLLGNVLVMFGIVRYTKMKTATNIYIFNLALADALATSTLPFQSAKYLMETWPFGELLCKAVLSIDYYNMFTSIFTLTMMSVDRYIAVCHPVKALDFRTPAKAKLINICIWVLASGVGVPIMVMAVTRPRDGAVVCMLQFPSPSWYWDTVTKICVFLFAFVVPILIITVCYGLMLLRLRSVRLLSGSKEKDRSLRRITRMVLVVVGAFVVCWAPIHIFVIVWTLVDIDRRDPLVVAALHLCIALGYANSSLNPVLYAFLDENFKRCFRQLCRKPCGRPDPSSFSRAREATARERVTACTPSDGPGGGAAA
The subject of data set [4] is Mus musculus. Nature of the data set: Antinociceptive activity in Kunming mouse assessed as changes in tail flick latency by measuring maximal possible effect at 26.1 nmol/kg, sc measured after 20 mins by tail-flick test. It is filed as functional. For orientation: Thermal pain tests record how soon the animal reacts.
The target of data set [5] is T3, Mu-type opioid receptor (Homo sapiens, UniProt P35372). Briefly: Agonist activity at MOR (unknown origin) transfected in CHO cells co-expressing Galphaq15 assessed as increase in calcium mobilization by measuring maximal efficacy by Fluo-4AM dye based assay relative to control. The following applies: filed as agonist. Type of data set: functional, cell-based.
T3 sequence (P35372 whole entry): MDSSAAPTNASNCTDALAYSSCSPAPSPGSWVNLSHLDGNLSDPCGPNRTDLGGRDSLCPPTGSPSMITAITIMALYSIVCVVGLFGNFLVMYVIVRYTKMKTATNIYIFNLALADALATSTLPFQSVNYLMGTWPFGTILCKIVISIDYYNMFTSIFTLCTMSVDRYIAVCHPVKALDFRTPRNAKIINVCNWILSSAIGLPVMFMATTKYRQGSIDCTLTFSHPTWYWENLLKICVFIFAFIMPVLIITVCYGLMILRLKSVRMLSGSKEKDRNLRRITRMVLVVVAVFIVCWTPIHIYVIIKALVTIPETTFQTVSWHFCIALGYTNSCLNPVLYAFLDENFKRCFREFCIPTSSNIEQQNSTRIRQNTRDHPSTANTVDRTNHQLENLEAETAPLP
Data set [6] addresses T4, Neuropeptide FF receptor 2 (Homo sapiens, UniProt Q9Y5X5). Nature of the data set: Agonist activity at NPFF2R (unknown origin) transfected in HEK293 cells co-expressing Galphaq15 assessed as increase in calcium mobilization by measuring maximal efficacy by Fluo-4AM dye based assay relative to control. It is filed as functional, cell-based. The conditions noted are these: filed as agonist.

Data set [7] in a line: Metabolic stability in mouse plasma assessed as degradation half life at 10 mM measured upto 480 mins by RP-HPLC analysis. It is filed as ADME, cell-free.
In data set [8] the test system is Mus musculus. Briefly: Antinociceptive activity in Kunming mouse assessed as changes in tail flick latency by measuring maximal possible effect at 26.1 nmol/kg, sc measured after 30 mins by tail-flick test. Type of data set: functional. The conditions noted are these: 0.5 h.
The target in data set [9] is T4, Neuropeptide FF receptor 2. Briefly: Agonist activity at NPFF2R (unknown origin) transfected in HEK293 cells co-expressing Galphaq15 assessed as increase in calcium mobilization by Fluo-4AM dye based assay. Type of data set: functional, cell-based.
For data set [10], the target named is T3, Mu-type opioid receptor. Nature of the data set: Agonist activity at MOR (unknown origin) transfected in CHO cells co-expressing Galphaq15 assessed as increase in calcium mobilization by Fluo-4AM dye based assay. It is filed as functional, cell-based.
The test system of data set [11] is Mus musculus. Briefly: Antinociceptive activity in Kunming mouse assessed as changes in tail flick latency by measuring maximal possible effect at 26.1 nmol/kg, sc measured after 60 mins by tail-flick test. Type of data set: functional. The following applies: 1 h.
The target in data set [12] is T2, Delta-type opioid receptor. Nature of the data set: Agonist activity at DOR (unknown origin) transfected in CHO cells co-expressing Galphaq15 assessed as increase in calcium mobilization by measuring maximal efficacy by Fluo-4AM dye based assay relative to control. Type of data set: functional, cell-based. The following applies: filed as agonist.
For data set [13], the system named is Mus musculus. Briefly: Antinociceptive activity in Kunming mouse assessed as changes in tail flick latency by measuring maximal possible effect at 26.1 nmol/kg, sc measured after 120 mins by tail-flick test. Type of data set: functional. The conditions noted are these: 2 h.
The subject of data set [14] is Mus musculus. Nature of the data set: Antinociceptive activity in Kunming mouse assessed as changes in tail flick latency by measuring maximal possible effect at 26.1 nmol/kg, sc measured after 240 mins by tail-flick test. Type of data set: functional. The following applies: 4 h.
Data set [15] can be described thus: Agonist activity at NPFF1R (unknown origin) transfected in CHO cells co-expressing Galphaq15 assessed as increase in calcium mobilization by measuring maximal efficacy by Fluo-4AM dye based assay relative to control. Type of data set: functional, cell-based. The conditions noted are these: Homo sapiens, filed as agonist.
In data set [16] the target is T1, Kappa-type opioid receptor. Briefly: Agonist activity at KOR (unknown origin) transfected in CHO cells co-expressing Galphaq15 assessed as increase in calcium mobilization by measuring maximal efficacy by Fluo-4AM dye based assay relative to control. Type of data set: functional, cell-based. The following applies: filed as agonist.
Data set [17] concerns Mus musculus. Briefly: Antinociceptive activity in Kunming mouse assessed as changes in tail flick latency by measuring time duration of antinociceptive effect at 26.1 nmol/kg, sc by tail-flick test. It is filed as functional.
Data set [18] relates to Mus musculus. Nature of the data set: Antinociceptive activity in Kunming mouse assessed as changes in tail flick latency at 26.1 nmol/kg, sc pretreated with naloxone methiodide at 5 nmol, icv for 10 mins followed by compound addition and measured for 360 mins by tail-flick test. It is filed as functional, organism-based.
Data set [19] relates to Mus musculus. Nature of the data set: Antinociceptive activity in Kunming mouse assessed as changes in tail flick latency by measuring maximal possible effect at 8.8 nmol/kg, sc measured after 120 mins by tail-flick test. The conditions noted are these: 2 h. Type of data set: functional.
Data set [20] has as its system Mus musculus. Briefly: Antinociceptive activity in Kunming mouse assessed as changes in tail flick latency at 8.8 nmol/kg, sc pretreated with naloxone methiodide at 5 nmol, icv for 10 mins followed by compound addition and measured for 360 mins by tail-flick test. Type of data set: functional, organism-based.
Data set [21] concerns Mus musculus. Briefly: Antinociceptive activity in Kunming mouse assessed as changes in tail flick latency by measuring time duration of antinociceptive effect at 8.8 nmol/kg, sc by tail-flick test. Type of data set: functional.
The subject of data set [22] is Mus musculus. Nature of the data set: Antinociceptive activity in Kunming mouse assessed as changes in tail flick latency by measuring maximal possible effect at 8.8 nmol/kg, sc measured after 30 mins by tail-flick test. Type of data set: functional. The conditions noted are these: 0.5 h.
Data set [23] concerns Mus musculus. Briefly: Antinociceptive activity in Kunming mouse assessed as changes in tail flick latency by measuring maximal possible effect at 8.8 nmol/kg, sc measured after 20 mins by tail-flick test. It is filed as functional.
Data set [24] concerns Mus musculus. Nature of the data set: Antinociceptive activity in Kunming mouse assessed as changes in tail flick latency by measuring maximal possible effect at 8.8 nmol/kg, sc measured after 60 mins by tail-flick test. It is filed as functional. The following applies: 1 h.
For data set [25], the system named is Mus musculus. Briefly: Antinociceptive activity in Kunming mouse assessed as changes in tail flick latency by measuring maximal possible effect at 8.8 nmol/kg, sc measured after 240 mins by tail-flick test. Type of data set: functional. The conditions noted are these: 4 h.

Active and inactive are the calls of the source. No cut-off for these calls is given here.

T4 sequence (Q9Y5X5 whole entry): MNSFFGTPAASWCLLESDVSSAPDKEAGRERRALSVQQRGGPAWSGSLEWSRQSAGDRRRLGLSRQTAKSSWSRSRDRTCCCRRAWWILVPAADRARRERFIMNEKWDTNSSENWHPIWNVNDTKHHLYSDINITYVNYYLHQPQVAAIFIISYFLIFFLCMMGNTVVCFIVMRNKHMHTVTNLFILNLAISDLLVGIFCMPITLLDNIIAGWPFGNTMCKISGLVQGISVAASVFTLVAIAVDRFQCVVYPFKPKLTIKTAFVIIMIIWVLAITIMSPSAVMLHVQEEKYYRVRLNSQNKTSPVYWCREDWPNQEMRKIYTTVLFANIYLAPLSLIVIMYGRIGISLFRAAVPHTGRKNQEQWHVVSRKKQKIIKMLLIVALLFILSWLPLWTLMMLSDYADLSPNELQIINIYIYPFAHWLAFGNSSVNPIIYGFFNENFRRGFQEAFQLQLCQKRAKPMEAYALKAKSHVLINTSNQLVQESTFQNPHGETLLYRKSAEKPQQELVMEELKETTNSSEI

What is called half-life is how long it takes for the measured level to halve. A word on the EC50: it is the concentration that produces a half-maximal response. In general, Emax refers to the size of the effect at its maximum, as opposed to the concentration needed. Turning to `CN1C(=O)CNC(=O)[C@H](N[C@@H](Cc2ccc(O)cc2)C(=O)O)CCCC/C=C\CC[C@@H](C(=O)N2CCC[C@H]2C(=O)N[C@@H](CCC(N)=O)C(=O)N[C@@H](CCCNC(=N)N)C(=O)N[C@@H](Cc2ccccc2)C(N)=O)NC(=O)[C@@H]1Cc1ccccc1`, the half-life at 10000 µM in data set [1] came out at 1.95 h; in data set [7] it was 0.625 h. The EC50 in [2] was determined as 503 nM; in data set [3], 58.2 nM; in data set [9], 1080 nM; at Mu-type opioid receptor [10], 92.3 nM. Besides, the MPE in the data set on Mus musculus [4] was 93%; with Mus musculus [8], 93.7%; with Mus musculus [11] it was 77.4%; in the data set with Mus musculus [13], 73.5%; in the data set with Mus musculus [14], 36%. Besides, the Emax on Mu-type opioid receptor [5] was 109%; in data set [6], 88.6%; in data set [12] it was 97.5%; in [15], 105%; in data set [16] it was 128%. Besides, in the data set with Mus musculus [17], the Time is given as 360 min. In the data set on Mus musculus [18], the outcome was inactive.

In the case of `CN1C(=O)CNC(=O)[C@@H](N[C@@H](Cc2ccc(O)cc2)C(=O)O)C/C=C/CCCC[C@H](C(=O)N2CCC[C@H]2C(=O)N[C@@H](CCC(N)=O)C(=O)N[C@@H](CCCNC(=N)N)C(=O)N[C@@H](Cc2ccccc2)C(N)=O)NC(=O)[C@@H]1Cc1ccccc1`, the results for the half-life at 10000 µM in data set [1] and in data set [7] were 1.47 h and 0.13 h, respectively. The MPE came out at 71.5% in the data set on Mus musculus [19]; 93.6% in the data set on Mus musculus [22]; 92.8% in the data set with Mus musculus [23]; 79% in the data set with Mus musculus [24]; 41.6% in the data set on Mus musculus [25]. Besides, the outcome in the data set with Mus musculus [20] was inactive. Further, the EC50 in data set [2] was 1230 nM; in data set [3], 8920 nM; in [9], 3760 nM; on Mu-type opioid receptor [10] it was 2900 nM. Further, the Time in the data set on Mus musculus [21] came out at 360 min. Moreover, the Emax on Mu-type opioid receptor [5] worked out at 81%; in data set [6], 40.9%; in data set [12], 99.4%; in [15], 124%; in data set [16] it was 56.1%.

On to `CN1C(=O)CNC(=O)[C@H](N[C@@H](Cc2ccc(O)cc2)C(=O)O)CCC/C=C/CC[C@@H](C(=O)N2CCC[C@H]2C(=O)N[C@@H](CCC(N)=O)C(=O)N[C@@H](CCCNC(=N)N)C(=O)N[C@@H](Cc2ccccc2)C(N)=O)NC(=O)[C@@H]1Cc1ccccc1`, for which the half-life at 10000 µM in data set [1] stood at 1.83 h; in [7], 0.537 h. In addition, the MPE in the data set on Mus musculus [19] is listed as 74.2%; in the data set on Mus musculus [22], 96.5%; with Mus musculus [23], 89.9%; with Mus musculus [24] it was 72.1%; in the data set on Mus musculus [25], 47.8%. The result in the data set on Mus musculus [20] was inactive. The EC50 in [2] stood at 273 nM; in data set [3], 23.9 nM; in [9], 3110 nM; at Mu-type opioid receptor [10], 7.6 nM. Besides, the Time with Mus musculus [21] was 360 min. In addition, the Emax on Mu-type opioid receptor [5] stood at 102%; in data set [6], 118%; in data set [12], 98.2%; in data set [15], 91.8%; in data set [16], 96.4%.

`CN1C(=O)CNC(=O)[C@H](N[C@@H](Cc2ccc(O)cc2)C(=O)O)CCCC/C=C/CC[C@@H](C(=O)N2CCC[C@H]2C(=O)N[C@@H](CCC(N)=O)C(=O)N[C@@H](CCCNC(=N)N)C(=O)N[C@@H](Cc2ccccc2)C(N)=O)NC(=O)[C@@H]1Cc1ccccc1`: the half-life at 10000 µM in data set [1] was 2.26 h; in data set [7], 1.01 h. Also, the EC50 in data set [2] came to 132 nM; in [3], 13.4 nM; in data set [9] it was 9770 nM; at Mu-type opioid receptor [10], 1.2 nM. For the same molecule, the MPE with Mus musculus [4] came out at 91.9%; with Mus musculus [8], 92.1%; in the data set with Mus musculus [11], 80.3%; in the data set on Mus musculus [13], 69%; with Mus musculus [14] it was 42.3%. Besides, the Emax at Mu-type opioid receptor [5] is 84.6%; in data set [6], 125%; in data set [12] it was 73.8%; in [15], 91.9%; in [16] it was 100%. For the same molecule, the Time with Mus musculus [17] came out at 360 min. The result with Mus musculus [18] was inactive.

Regarding `CC(C)C[C@H](NC(=O)[C@@H](N)Cc1ccccc1)C(=O)N[C@@H](Cc1ccccc1)C(=O)N[C@@H](CCC(N)=O)C(=O)N1CCC[C@H]1C(=O)N[C@@H](CCC(N)=O)C(=O)N[C@@H](CCCN=C(N)N)C(=O)N[C@@H](Cc1ccccc1)C(N)=O`, the Emax in data set [15] amounted to 97.9%.

The record behind these values is ChEMBL document CHEMBL5356973 (J Med Chem, 2023).
